The source of these data is patent US9371331B2, “Modulators of methyl modifying enzymes, compositions and uses thereof” (Constellation Pharmaceuticals, Inc., priority 2012, dated 2016).

For one assay, the target named is EZH2 (rPRC2) (Homo sapiens, UniProt Q15910). The assay is described as follows: EZH2 assay: rPRC2, biotinylated oligonucleosomes, 3H SAM methyl transfer (FlashPlate scintillation). The assay is classed as biochemical. The following applies: biotinylated oligonucleosome substrate.
EZH2 (rPRC2), sequence (Q15910 whole entry): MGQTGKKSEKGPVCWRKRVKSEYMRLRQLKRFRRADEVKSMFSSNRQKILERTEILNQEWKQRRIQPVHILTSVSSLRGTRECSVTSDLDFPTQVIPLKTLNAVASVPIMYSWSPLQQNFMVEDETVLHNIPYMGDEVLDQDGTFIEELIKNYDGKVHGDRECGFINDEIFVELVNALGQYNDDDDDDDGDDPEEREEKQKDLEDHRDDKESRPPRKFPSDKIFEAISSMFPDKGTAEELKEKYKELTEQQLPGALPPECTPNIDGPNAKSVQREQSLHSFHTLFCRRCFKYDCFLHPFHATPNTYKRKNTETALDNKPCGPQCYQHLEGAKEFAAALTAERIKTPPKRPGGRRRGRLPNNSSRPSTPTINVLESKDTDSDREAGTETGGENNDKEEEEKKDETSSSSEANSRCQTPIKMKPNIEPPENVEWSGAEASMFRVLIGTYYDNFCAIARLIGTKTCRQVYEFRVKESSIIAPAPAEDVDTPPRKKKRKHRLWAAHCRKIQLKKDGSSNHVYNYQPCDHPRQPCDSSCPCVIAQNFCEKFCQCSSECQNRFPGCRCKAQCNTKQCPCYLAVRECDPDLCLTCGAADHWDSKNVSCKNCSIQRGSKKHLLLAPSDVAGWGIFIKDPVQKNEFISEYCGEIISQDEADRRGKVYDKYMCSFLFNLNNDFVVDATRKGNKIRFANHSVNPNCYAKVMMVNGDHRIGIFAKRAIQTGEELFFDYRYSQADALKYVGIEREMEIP
EZH2 (rPRC2), sequence (O75530 whole entry partner): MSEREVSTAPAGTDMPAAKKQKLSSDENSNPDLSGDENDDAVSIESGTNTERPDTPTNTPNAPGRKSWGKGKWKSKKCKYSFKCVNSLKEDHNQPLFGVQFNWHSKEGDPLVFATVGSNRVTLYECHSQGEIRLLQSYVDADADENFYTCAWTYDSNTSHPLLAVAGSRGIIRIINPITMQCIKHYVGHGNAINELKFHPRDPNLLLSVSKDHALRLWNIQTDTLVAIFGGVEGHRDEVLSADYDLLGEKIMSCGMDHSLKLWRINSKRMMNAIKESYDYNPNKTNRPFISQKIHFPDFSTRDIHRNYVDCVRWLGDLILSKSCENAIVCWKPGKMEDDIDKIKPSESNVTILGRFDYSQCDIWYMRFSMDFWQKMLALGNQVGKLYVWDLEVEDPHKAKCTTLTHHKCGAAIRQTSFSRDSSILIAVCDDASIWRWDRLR
EZH2 (rPRC2), sequence (Q15022 whole entry partner): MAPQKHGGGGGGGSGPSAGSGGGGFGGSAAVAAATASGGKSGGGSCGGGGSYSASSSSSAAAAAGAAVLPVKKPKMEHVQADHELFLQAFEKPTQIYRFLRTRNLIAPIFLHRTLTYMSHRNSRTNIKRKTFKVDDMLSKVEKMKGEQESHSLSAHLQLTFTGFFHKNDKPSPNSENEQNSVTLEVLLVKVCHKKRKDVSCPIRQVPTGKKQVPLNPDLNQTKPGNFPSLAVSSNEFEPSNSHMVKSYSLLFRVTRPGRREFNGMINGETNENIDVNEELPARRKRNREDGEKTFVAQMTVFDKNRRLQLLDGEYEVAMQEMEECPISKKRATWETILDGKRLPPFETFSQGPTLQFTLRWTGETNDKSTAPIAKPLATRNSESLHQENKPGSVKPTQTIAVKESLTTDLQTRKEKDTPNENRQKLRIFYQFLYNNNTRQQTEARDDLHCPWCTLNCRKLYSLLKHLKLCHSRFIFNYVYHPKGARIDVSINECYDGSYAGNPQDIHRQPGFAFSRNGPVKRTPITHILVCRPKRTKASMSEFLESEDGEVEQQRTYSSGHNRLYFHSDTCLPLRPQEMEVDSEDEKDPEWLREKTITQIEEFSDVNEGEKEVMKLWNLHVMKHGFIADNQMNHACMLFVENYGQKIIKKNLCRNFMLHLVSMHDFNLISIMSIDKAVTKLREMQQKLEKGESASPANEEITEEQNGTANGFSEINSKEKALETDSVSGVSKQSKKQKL
The target in another assay is Y641N EZH2 (Homo sapiens, UniProt Q15910, Y641N). The assay is described as follows: Y641N EZH2 assay: as EZH2 assay, with reconstituted H3K27Me2 oligonucleosomes as substrate. The assay is classed as biochemical.
Y641N EZH2, sequence (Q15910 whole entry Y641N): as the sequence (Q15910 whole entry) above, with Y641N counted along it
Y641N EZH2, sequence (O75530 whole entry partner): as the sequence (O75530 whole entry partner) above
Y641N EZH2, sequence (Q15022 whole entry partner): as the sequence (Q15022 whole entry partner) above
[1] abbreviates: EZH2 IC50, wild-type EZH2 (rPRC2).
Setting [2] is: Y641N EZH2 IC50, Y641N mutant EZH2, H3K27Me2 oligonucleosome substrate.
Setting [3] is: wild-type EZH2 (rPRC2), read-out: EZH2 IC50.
The mark [4] stands for this setting: Y641N mutant EZH2, H3K27Me2 oligonucleosome substrate, read-out: Y641N EZH2 IC50.

Each structure is given as a SMILES string. pIC50: −log10 of the molar value. Where two headings read alike, the source gives them in different places. Bounds are passed on as bounds.

As for `Cc1cc(C)c(CNC(=O)c2c(C)n([C@H](C)c3ccccc3)c3nc(N4CCCC4)ncc23)c(O)n1` [Compound 142, (R)—N-((2-hydroxy-4,6-dimethylpyridin-3-yl)methyl)-6-methyl-7-(1-phenylethyl)-2-(pyrrolidin-1-yl)-7H-pyrrolo[2,3-d]pyrimidine-5-carboxamide], the negative logarithm of the IC50 (pIC50) (as a rule, −log10 of the IC50, conventionally taken in molar units) at EZH2 (rPRC2) (setting [1]) is 6.00 to 7.00; at Y641N EZH2 (setting [2]) it was 5.00 to 6.00.
Taken in the same sequence, the figures for `Cc1cc(C)c(CNC(=O)c2c(C)n(Cc3cncnc3)c3ccccc23)c(=O)[nH]1` [Compound 149, N-((4,6-dimethyl-2-oxo-1,2-dihydropyridin-3-yl)methyl)-2-methyl-1-(pyrimidin-5-ylmethyl)-1H-indole-3-carboxamide] were 6.00 to 7.00 and 5.00 to 6.00.
For `Cc1cc(C)c(CNC(=O)c2c(C)n(C(=O)c3ccccc3)c3ccccc23)c(O)n1` [Compound 150, 1-benzoyl-N-((2-hydroxy-4,6-dimethylpyridin-3-yl)methyl)-2-methyl-1H-indole-3-carboxamide], the pIC50 on EZH2 (rPRC2) (setting [3]) and on Y641N EZH2 (setting [4]) was 6.00 to 7.00 in each case.
As for `Cc1cc(C)c(CNC(=O)c2c(C)n([C@H](C)c3ccccc3)c3nc(Cl)ncc23)c(O)n1` [Compound 167], the pIC50 at EZH2 (rPRC2) (setting [1]) and against Y641N EZH2 (setting [2]) was 6.00 to 7.00 each time.
As to `Cc1cc(C)c(CNC(=O)c2c(C)n([C@H](C)c3ccccc3)c3nc(C4CCOCC4)ncc23)c(O)n1` [Compound 168, (R)-N-((2-hydroxy-4,6-dimethylpyridin-3-yl)methyl)-6-methyl-7-(1-phenylethyl)-2-(tetrahydro-2H-pyran-4-yl)-7H-pyrrolo[2,3-d]pyrimidine-5-carboxamide], the pIC50 on EZH2 (rPRC2) (setting [3]) is 6.00 to 7.00; on Y641N EZH2 (setting [4]), 5.00 to 6.00.
For `Cc1cc(C)c(CNC(=O)c2c(C)n(-c3cccc(C)c3C)c3ccccc23)c(=O)[nH]1` [Compound 173, N-((4,6-dimethyl-2-oxo-1,2-dihydropyridin-3-yl)methyl)-1-(2,3-dimethylphenyl)-2-methyl-1H-indole-3-carboxamide], the pIC50 at EZH2 (rPRC2) (setting [3]) is greater than 7.00; on Y641N EZH2 (setting [4]), 6.00 to 7.00.
`Cc1cc(C)c(CNC(=O)c2c(C)n([C@H](C)c3ccccc3)c3nc(C)ncc23)c(O)n1` [Compound 176, (R)-N-((2-hydroxy-4,6-dimethylpyridin-3-yl)methyl)-2,6-dimethyl-7-(1-phenylethyl)-7H-pyrrolo[2,3-d]pyrimidine-5-carboxamide]: the pIC50 against EZH2 (rPRC2) (setting [1]) was greater than 7.00; on Y641N EZH2 (setting [2]), 6.00 to 7.00.
Taken in the same sequence, the figures for `Cc1cc(C)c(CNC(=O)c2c(C)n([C@H](C)c3ccccc3)c3nc(C(C)C)ncc23)c(O)n1` [Compound 177, (R)-N-((2-hydroxy-4,6-dimethylpyridin-3-yl)methyl)-2-isopropyl-6-methyl-7-(1-phenylethyl)-7H-pyrrolo[2,3-d]pyrimidine-5-carboxamide] were greater than 7.00 and 6.00 to 7.00.
Consider `CC[C@@H](C)n1c(C)c(C(=O)NCc2c(C)cc(C)[nH]c2=O)c2cnc(Cl)nc21` [Compound 184, (R)-7-(sec-butyl)-2-chloro-N-((4,6-dimethyl-2-oxo-1,2-dihydropyridin-3-yl)methyl)-6-methyl-7H-pyrrolo[2,3-d]pyrimidine-5-carboxamide], for which the figures for the pIC50 on EZH2 (rPRC2) (setting [1]) and at Y641N EZH2 (setting [2]) were 6.00 to 7.00 and 5.00 to 6.00, respectively.
Turning to `CC[C@@H](C)n1c(C)c(C(=O)NCc2c(C)cc(C)nc2O)c2cnc(-c3ccccc3)nc21` [Compound 188, (R)-7-(sec-butyl)-N-((2-hydroxy-4,6-dimethylpyridin-3-yl)methyl)-6-methyl-2-phenyl-7H-pyrrolo [2,3-d]pyrimidine-5-carboxamide], the negative logarithm of the IC50 (pIC50) is 6.00 to 7.00 at EZH2 (rPRC2) (setting [3]) and 5.00 to 6.00 on Y641N EZH2 (setting [4]).
For `CC[C@@H](C)n1c(C)c(C(=O)NCc2c(C)cc(C)nc2O)c2cncnc21` [Compound 189, (R)-7-(sec-butyl)-N-((2-hydroxy-4,6-dimethylpyridin-3-yl)methyl)-6-methyl-7H-pyrrolo[2,3-d]pyrimidine-5-carboxamide], the pIC50 against EZH2 (rPRC2) (setting [1]) was 6.00 to 7.00; against Y641N EZH2 (setting [2]), 5.00 to 6.00.
As for `Cc1cc(C)c(CNC(=O)c2c(C)n(S(=O)(=O)N3CCCCC3)c3ncccc23)c(=O)[nH]1` [Compound 194, N-((4,6-dimethyl-2-oxo-1,2-dihydropyridin-3-yl)methyl)-2-methyl-1-(piperidin-1-ylsulfonyl)-1H-pyrrolo[2,3-b]pyridine-3-carboxamide], the pIC50 on EZH2 (rPRC2) (setting [3]) is 6.00 to 7.00; on Y641N EZH2 (setting [4]), 5.00 to 6.00.
As to `CC[C@@H](C)n1c(C)c(C(=O)NCc2c(C)cc(C)[nH]c2=O)c2cnc(C(C)C)nc21` [Compound 197, (R)-7-(sec-butyl)-N-((4,6-dimethyl-2-oxo-1,2-dihydropyridin-3-yl)methyl)-2-isopropyl-6-methyl-7H-pyrrolo[2,3-d]pyrimidine-5-carboxamide], the pIC50 at EZH2 (rPRC2) (setting [1]) and against Y641N EZH2 (setting [2]) was 6.00 to 7.00 each time.
Consider `CC[C@@H](C)n1c(C)c(C(=O)NCc2c(C)cc(C)[nH]c2=O)c2cnc(C(=O)NC)nc21` [Compound 198, (R)-7-(sec-butyl)-N5-((4,6-dimethyl-2-oxo-1,2-dihydropyridin-3-yl)methyl)-N2,6-dimethyl-7H-pyrrolo[2,3-d]pyrimidine-2,5-dicarboxamidc], for which the pIC50 at EZH2 (rPRC2) (setting [3]) and on Y641N EZH2 (setting [4]) was 5.00 to 6.00 throughout.
As for `CC[C@@H](C)n1c(C)c(C(=O)NCc2c(C)cc(C)[nH]c2=O)c2cnc(CO)nc21` [Compound 199, (R)-7-(sec-butyl)-N-((4,6-dimethyl-2-oxo-1,2-dihydropyridin-3-yl)methyl)-2-(hydroxymethyl)-6-methyl-7H-pyrrolo[2,3-d]pyrimidine-5-carboxamide], the pIC50 was 6.00 to 7.00 at EZH2 (rPRC2) (setting [3]) and 5.00 to 6.00 at Y641N EZH2 (setting [4]).
For the compound `CC[C@@H](C)n1c(C)c(C(=O)NCc2c(C)cc(C)[nH]c2=O)c2cnc(C)nc21` [Compound 200, (R)-7-(sec-butyl)-N-((4,6-dimethyl-2-oxo-1,2-dihydropyridin-3-yl)methyl)-2,6-dimethyl-7H-pyrrolo[2,3-d]pyrimidine-5-carboxamide], the pIC50 against EZH2 (rPRC2) (setting [1]) is 6.00 to 7.00; on Y641N EZH2 (setting [2]) it was 5.00 to 6.00.
Taken in the same sequence, the figures for `Cc1cc(C)c(CNC(=O)c2c(C)n(C3CCOCC3)c3ncccc23)c(=O)[nH]1` [Compound 244, N-((4,6-dimethyl-2-oxo-1,2-dihydropyridin-3-yl)methyl)-2-methyl-1-(tetrahydro-2H-pyran-4-yl)-1H-pyrrolo[2,3-b]pyridine-3-carboxamide] were 6.00 to 7.00 and 5.00 to 6.00.
The matching figures for `Cc1cc(C)c(CNC(=O)c2c(C)n(CC3(C)COC3)c3ccccc23)c(=O)[nH]1` [Compound 246, N-((4,6-dimethyl-2-oxo-1,2-dihydropyridin-3-yl)methyl)-2-methyl-1-((3-methyloxetan-3-yl)methyl)-1H-indole-3-carboxamide]: 6.00 to 7.00 and 6.00 to 7.00.
For `CNC(=O)c1cccc(C(C)n2c(C)c(C(=O)NCc3c(OC)cc(C)[nH]c3=O)c3cccnc32)c1` (stereo not shown) [Compound 263, N-((4-methoxy-6-methyl-2-oxo-1,2-dihydropyridin-3-yl)methyl)-2-methyl-1-(1-(3-(methylcarbamoyl)phenyl)ethyl)-1H-pyrrolo[2,3-b]pyridine-3-carboxamide], the negative-log IC50 (pIC50) is greater than 7.00 at EZH2 (rPRC2) (setting [3]) and 6.00 to 7.00 on Y641N EZH2 (setting [4]).
The matching figures for `COc1cc(C)[nH]c(=O)c1CNC(=O)c1c(C)n(C(C)C(OC)c2ccccc2)c2ncccc12` (stereo not shown) [Compound 265, 1-(1-methoxy-1-phenylpropan-2-yl)-N-((4-methoxy-6-methyl-2-oxo-1,2-dihydropyridin-3-yl)methyl)-2-methyl-1H-pyrrolo[2,3-b]pyridine-3-carboxamide]: greater than 7.00 and 6.00 to 7.00.
With `Cc1cc(C)c(CNC(=O)c2c(C)n(C(C)C(C)(C)O)c3ncccc23)c(=O)[nH]1` (stereo not shown) [Compound 271, N-((4,6-dimethyl-2-oxo-1,2-dihydropyridin-3-yl)methyl)-1-(3-hydroxy-3-methylbutan-2-yl)-2-methyl-1H-pyrrolo[2,3-b]pyridine-3-carboxamide], the pIC50 at EZH2 (rPRC2) (setting [1]) and on Y641N EZH2 (setting [2]) was 5.00 to 6.00 each time.
As for `COc1cc(C)[nH]c(=O)c1CNC(=O)c1c(C)n([C@@H](C)c2ccccc2)c2ncccc12` [Compound 276, (S)-N-((4-methoxy-6-methyl-2-oxo-1,2-dihydropyridin-3-yl)methyl)-2-methyl-1-(1-phenylethyl)-1H-pyrrolo[2,3-b]pyridine-3-carboxamide], the negative logarithm of the IC50 (pIC50) on EZH2 (rPRC2) (setting [1]) and on Y641N EZH2 (setting [2]) was greater than 7.00 in each case.
On to `COC[C@H](C)n1c(C)c(C(=O)NCc2c(OC)cc(C)[nH]c2=O)c2cncnc21` [Compound 287, (S)-N-((4-methoxy-6-methyl-2-oxo-1,2-dihydropyridin-3-yl)methyl)-7-(1-methoxypropan-2-yl)-6-methyl-7H-pyrrolo[2,3-d]pyrimidine-5-carboxamide], for which the figures for the pIC50 on EZH2 (rPRC2) (setting [1]) and at Y641N EZH2 (setting [2]) were 6.00 to 7.00 and 5.00 to 6.00, respectively.
The matching figures for `CCC(OC)C(C)n1c(C)c(C(=O)NCc2c(OC)cc(C)[nH]c2=O)c2cccnc21` (stereo not shown) [Compound 293, N-((4-methoxy-6-methyl-2-oxo-1,2-dihydropyridin-3-yl)methyl)-1-(3-methoxypentan-2-yl)-2-methyl-1H-pyrrolo [2,3-b] pyridine-3-carboxamide]: greater than 7.00 and 6.00 to 7.00.
For the compound `COc1cc(C)[nH]c(=O)c1CNC(=O)c1c(C)n(C(C)CC(N)=O)c2ncccc12` (stereo not shown) [Compound 296, 1-(4-amino-4-oxobutan-2-yl)-N-((4-methoxy-6-methyl-2-oxo-1,2-dihydropyridin-3-yl)methyl)-2-methyl-1H-pyrrolo[2,3-b]pyridine-3-carboxamide], the pIC50 on EZH2 (rPRC2) (setting [3]) is 6.00 to 7.00; on Y641N EZH2 (setting [4]), 5.00 to 6.00.
With `CCC(OC)C(C)n1c(C)c(C(=O)NCc2c(OC)cc(C)[nH]c2=O)c2ccccc21` (stereo not shown) [Compound 299, N-((4-methoxy-6-methyl-2-oxo-1,2-dihydropyridin-3-yl)methyl)-1-(3-methoxypentan-2-yl)-2-methyl-1H-indole-3-carboxamide], the negative-log IC50 (pIC50) at EZH2 (rPRC2) (setting [1]) and on Y641N EZH2 (setting [2]) was greater than 7.00 throughout.
